Assays:
[1] = tested on: antibodies in sera from SARS patients (sera 1a, 1b, 2, 6, 37, 62, London, SARS-yellow, SARS-green); format: binding, human; design: Binding of serum 6 to linear peptides of protein X1 of SARS-CoV Urbani / Binding of serum 37 to linear peptides of protein X1 of SARS-CoV Urbani / Binding of serum 6 to looped/cyclic peptide (PEPSCAN-ELISA) / Binding of serum 37 to looped/cyclic peptide (PEPSCAN-ELISA) / Binding of serum 37 to looped/cyclic peptides of protein X1 of SARS-CoV Urbani / Binding of serum 6 to linear peptides of protein X2 / Binding of serum 37 to linear peptides of protein X2 / Binding of serum 37 to looped/cyclic peptides of protein X2 of SARS-CoV Urbani / Binding of serum 6 to linear peptides of protein M of SARS-CoV Urbani / Binding of serum 37 to linear peptides of protein M of SARS-CoV Urbani / Binding of serum 6 to looped/cyclic peptides of protein M of SARS-CoV Urbani / Binding of serum 37 to looped/cyclic peptides of protein M of SARS-CoV Urbani / Binding of serum 6 to linear peptides of protein X3 of SARS-CoV Urbani / Binding of serum 37 to linear peptides of protein X3 of SARS-CoV Urbani / Binding of serum 37 to looped/cyclic peptides of protein X3 of SARS-CoV Urbani / Binding of serum 6 to linear peptides of protein X4 of SARS-CoV Urbani / Binding of serum 37 to linear peptides of protein X4 of SARS-CoV Urbani / Binding of serum 37 to looped/cyclic peptides of protein X4 of SARS-CoV Urbani / Binding of serum 6 to linear peptides of protein X5 of SARS-CoV Urbani / Binding of serum 37 to linear peptides of protein X5 of SARS-CoV Urbani / Binding of serum 37 to looped/cyclic peptides of protein X5 of SARS-CoV Urbani / Binding of serum 6 to linear peptides of protein N of SARS-CoV Urbani / Binding of serum 37 to linear peptides of protein N of SARS-CoV Urbani / Binding of serum 6 to linear peptide (PEPSCAN-ELISA) / Binding of serum 1a to looped/cyclic peptides of protein N of SARS-CoV Urbani / Binding of serum 1b to looped/cyclic peptides of protein N of SARS-CoV Urbani / Binding of serum 2 to looped/cyclic peptides of protein N of SARS-CoV Urbani / Binding of serum 6 to looped/cyclic peptides of protein N of SARS-CoV Urbani / Binding of serum 37 to looped/cyclic peptides of protein N of SARS-CoV Urbani / Binding of serum 62 to looped/cyclic peptides of protein N of SARS-CoV Urbani / Binding of serum London to looped/cyclic peptides of protein N of SARS-CoV Urbani / Binding of serum SARS-green to looped/cyclic peptides of protein N of SARS-CoV Urbani: unit not given here
[2] = tested on: rabbit serum obtained by immunizing a rabbit with the SARS-CoV strain Frankfurt 1; format: binding; design: Binding of a rabbit serum to linear peptides / Binding of a rabbit serum to looped peptides / Rabbit serum linear peptides / Rabbit serum looped peptides / Binding of a rabbit serum to linear peptides of protein N of SARS-CoV Urbani (Rabbit serum linear peptides) / Binding of a rabbit serum to looped/cyclic peptides of protein N of SARS-CoV Urbani (Rabbit serum looped peptides): unit not given here
[3] = tested on: control sera (pooled serum of ten healthy LUMC hospital workers; commercial negative donor pooled serum from the Dutch bloodbank); format: binding, human; design: Binding of Control serum LUMC to linear peptides / Binding of Control serum Blood-bank to linear peptides / Binding of Control serum LUMC to looped peptides / Binding of Control Serum Blood-Bank to Looped peptides / Binding of Control serum LUMC to linear peptides of the protein M of SARS-CoV Urbani / Binding of Control serum Blood-bank to linear peptides of the protein M of SARS-CoV Urbani / Binding of Control serum LUMC to looped peptides of the protein M of SARS-CoV Urbani / Binding of Control Serum Blood-Bank to Looped peptides of the protein M of SARS-CoV Urbani: unit not given here
[4] = tested on: recombinant human anti-SARS-CoV antibody 03-018; format: binding; design: Binding of antibody 03-018 to linear peptides of the N protein of SARS-CoV Urbani / Binding of antibody 03-018 to looped/cyclic peptides of the N protein of SARS-CoV Urbani: unit not given here

Row | Sequence | Binding of serum 1a to linear peptides of protein N of SARS-CoV Urbani [1] | Binding of serum 1a to looped/cyclic peptides of protein N of SARS-CoV Urbani [1] | Binding of serum 1b to linear peptides of protein N of SARS-CoV Urbani [1] | Binding of serum 1b to looped/cyclic peptides of protein N of SARS-CoV Urbani [1] | Binding of serum 2 to linear peptides of protein N of SARS-CoV Urbani [1] | Binding of serum 2 to looped/cyclic peptides of protein N of SARS-CoV Urbani [1] | Binding of serum 6 to linear peptides of protein N of SARS-CoV Urbani [1] | Binding of serum 6 to looped/cyclic peptides of protein N of SARS-CoV Urbani [1] | Binding of serum 37 to linear peptides of protein N of SARS-CoV Urbani [1] | Binding of serum 37 to looped/cyclic peptides of protein N of SARS-CoV Urbani [1] | Binding of serum 62 to linear peptides of protein N of SARS-CoV Urbani [1] | Binding of serum 62 to looped/cyclic peptides of protein N of SARS-CoV Urbani [1] | Binding of serum London to linear peptides of protein N of SARS-CoV Urbani [1] | Binding of serum London to looped/cyclic peptides of protein N of SARS-CoV Urbani [1] | Binding of serum SARS-green to linear peptides of protein N of SARS-CoV Urbani [1] | Binding of serum SARS-green to looped/cyclic peptides of protein N of SARS-CoV Urbani [1] | Binding of serum SARS-yellow to linear peptides of protein N of SARS-CoV Urbani [1] | Binding of serum SARS-yellow to looped/cyclic peptides of protein N of SARS-CoV Urbani [1] | Binding of a rabbit serum to linear peptides of protein N of SARS-CoV Urbani (Rabbit serum linear peptides) [2] | Binding of a rabbit serum to looped/cyclic peptides of protein N of SARS-CoV Urbani (Rabbit serum looped peptides) [2] | also measured
1 | PKDHIGTRNPNNNAA | 0.3 | 0.4 | 0.1 | 0.3 | 0.3 | 0.3 | 0.2 | 0.3 | 0.8 | 0.5 | 0.9 | 0.3 | 0.5 | 0.3 | 0.4 | 0.2 | 0.8 | 0.2 | 0.2 | 0.2 | Binding of Control Serum Blood-Bank to Looped peptides [3]: 0.5; Binding of Control serum Blood-bank to linear peptides [3]: 0.8; Binding of Control serum LUMC to linear peptides [3]: 0.8; Binding of Control serum LUMC to looped peptides [3]: 0.6; Binding of antibody 03-018 to linear peptides of the N protein of SARS-CoV Urbani [4]: 0.1; Binding of antibody 03-018 to looped/cyclic peptides of the N protein of SARS-CoV Urbani [4]: 0.2
2 | PNNTASWFTALTQHG | 0.2 | 0.4 | 0.1 | 0.2 | 0.2 | 0.3 | 0.2 | 0.2 | 0.7 | 0.6 | 0.7 | 0.5 | 0.5 | 0.3 | 0.3 | 0.7 | 0.4 | 0.6 | 0.1 | 0.4 | Binding of Control Serum Blood-Bank to Looped peptides [3]: 0.7; Binding of Control serum Blood-bank to linear peptides [3]: 0.5; Binding of Control serum LUMC to linear peptides [3]: 0.7; Binding of Control serum LUMC to looped peptides [3]: 0.7; Binding of antibody 03-018 to linear peptides of the N protein of SARS-CoV Urbani [4]: 0.1; Binding of antibody 03-018 to looped/cyclic peptides of the N protein of SARS-CoV Urbani [4]: 0.3
3 | PPTEPKKDKKKKTDE | 0.2 | 0.2 | 0.1 | 0.1 | 2.0 | 0.2 | 0.2 | 0.1 | 0.6 | 0.4 | 0.7 | 0.2 | 0.5 | 0.2 | 0.3 | 0.0 | 0.6 | 0.2 | 0.2 | 0.2 | Control Serum Blood-Bank Looped peptides [3]: 0.4; Control serum Blood-bank linear peptides [3]: 0.6; Control serum LUMC linear peptides [3]: 0.7; Control serum LUMC looped peptides [3]: 0.3; Binding of antibody 03-018 to linear peptides of the N protein of SARS-CoV Urbani [4]: 0.1; Binding of antibody 03-018 to looped/cyclic peptides of the N protein of SARS-CoV Urbani [4]: 0.2
